Here are results for 23 compounds from patent publication US12059420B2 (BRISTOL-MYERS SQUIBB COMPANY, priority 2018, dated 2024).

In this experiment the target is T1, human IDO1 (Homo sapiens, UniProt P14902).
T1 construct: expressed in transfected cells
T1 sequence (P14902 whole entry): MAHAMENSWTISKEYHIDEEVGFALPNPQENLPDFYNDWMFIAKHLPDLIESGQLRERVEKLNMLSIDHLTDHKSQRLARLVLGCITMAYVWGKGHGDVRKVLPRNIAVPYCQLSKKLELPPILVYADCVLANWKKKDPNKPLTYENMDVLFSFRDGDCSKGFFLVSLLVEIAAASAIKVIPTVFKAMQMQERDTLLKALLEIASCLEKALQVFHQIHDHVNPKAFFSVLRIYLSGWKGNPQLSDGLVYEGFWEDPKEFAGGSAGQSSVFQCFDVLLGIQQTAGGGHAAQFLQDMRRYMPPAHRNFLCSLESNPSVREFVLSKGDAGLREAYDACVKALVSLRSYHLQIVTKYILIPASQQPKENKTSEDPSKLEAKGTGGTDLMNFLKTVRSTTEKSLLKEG
Nature of the experiment: IDO inhibition assay in HEK293 cells stably expressing human IDO1 (kynurenine production, Ehrlich reagent, absorbance 490 nm). The format is cell-based. The conditions noted are these: 20 hours incubation with compound, 500 nM reference standard = 100% inhibition, read-out: IDO1 HEK Human IC50. A digest of the protocol:
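Kynurenine output of stably IDO1-transfected HEK293 cells was measured by absorbance at 490 nm after mixing supernatant with 0.2% Ehrlich reagent, following TCA stop (0.2% final, 50° C., 30 min). Cells were incubated 20 hours with compound. Inhibition was scaled between DMSO and 500 nM reference standard.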
As to `CC(C)CN(Cc1ccccc1)c1cc(Nc2ccccc2Cl)cc(-c2ccccc2-c2nnn[nH]2)n1` [Example 177, 6-(2-(1H-tetrazol-5-yl)phenyl)-N2-benzyl-N4-(2-chlorophenyl)-N2-isobutylpyridine-2,4-diamine], the IC50 (in general, the point on the concentration scale where inhibition reaches its midpoint) is 17.5 nM.

For the compound `CC(C)CN(Cc1ccccc1)c1cc(Nc2ncccc2F)cc(-c2ccccc2-c2nnn[nH]2)n1` [Example 178, 6-(2-(1H-tetrazol-5-yl)phenyl)-N2-benzyl-N4-(3-fluoropyridin-2-yl)-N2-isobutylpyridine-2,4-diamine], the IC50 came to 58.4 nM.

On to `CC(C)CN(Cc1ccccc1)c1cc(Nc2ccccc2F)cc(-c2ccccc2-c2nnn[nH]2)n1` [Example 179, 6-(2-(1H-tetrazol-5-yl)phenyl)-N2-benzyl-N4-(2-fluorophenyl)-N2-isobutylpyridine-2,4-diamine], for which the IC50 worked out at 10.9 nM.

Regarding `CC(C)CN(Cc1ccccc1)c1cc(Nc2ccc(Cl)cc2F)cc(-c2ccccc2-c2nnn[nH]2)n1` [Example 180, 6-(2-(1H-tetrazol-5-yl)phenyl)-N2-benzyl-N4-(4-chloro-2-fluorophenyl)-N2-isobutylpyridine-2,4-diamine], the IC50 was determined as 2.2 nM.

Regarding `CC(C)CN(Cc1ccccc1)c1cc(Nc2ccc(F)c(F)c2)cc(-c2ccccc2-c2nnn[nH]2)n1` [Example 181, 6-(2-(1H-tetrazol-5-yl)phenyl)-N2-benzyl-N4-(3,4-difluorophenyl)-N2-isobutylpyridine-2,4-diamine], the IC50 was 4.3 nM.

Turning to `CC(C)CN(Cc1ccccc1)c1cc(Nc2ccc3c(c2)OC(F)(F)O3)cc(-c2ccccc2-c2nnn[nH]2)n1` [Example 182, 6-(2-(1H-tetrazol-5-yl)phenyl)-N2-benzyl-N4-(2,2-difluorobenzo[d][1,3]dioxol-5-yl)-N2-isobutylpyridine-2,4-diamine], the IC50 is 9.5 nM.

`Cc1cc(F)cnc1Nc1cc(-c2ccccc2-c2nnn[nH]2)nc(N(Cc2ccccc2)CC(C)C)c1` [Example 183, 6-(2-(1H-tetrazol-5-yl)phenyl)-N2-benzyl-N4-(5-fluoro-3-methylpyridin-2-yl)-N2-isobutylpyridine-2,4-diamine]: the IC50 was found to be 129 nM.

As for `CC(C)CN(Cc1ccccc1)c1cc(Nc2cc(F)ccc2C(=O)O)cc(-c2ccccc2-c2nnn[nH]2)n1` [Example 185, 2-((2-(2-(1H-tetrazol-5-yl)phenyl)-6-(benzyl(isobutyl)amino)pyridin-4-yl)amino)-4-fluorobenzoic acid], the IC50 is 2740 nM.

Regarding `COc1ccc(Nc2cc(-c3ccccc3-c3nnn[nH]3)nc(N(Cc3ccccc3)CC(C)C)c2)c(F)c1` [Example 186, 6-(2-(1H-tetrazol-5-yl)phenyl)-N2-benzyl-N4-(2-fluoro-4-methoxyphenyl)-N2-isobutylpyridine-2,4-diamine], the half-inhibitory concentration (IC50) was 3.5 nM.

On to `Cc1ccc(Nc2cc(-c3ccccc3-c3nnn[nH]3)nc(N(Cc3ccccc3)CC(C)C)c2)c(C#N)c1` [Example 187, 2-((2-(2-(1H-tetrazol-5-yl)phenyl)-6-(benzyl(isobutyl)amino)pyridin-4-yl)amino)-5-methylbenzonitrile], for which the half-maximal inhibitory concentration (IC50) is 101 nM.

`COc1cc(Nc2cc(-c3ccccc3-c3nnn[nH]3)nc(N(Cc3ccccc3)CC(C)C)c2)ccc1Cl` [Example 188, 6-(2-(1H-tetrazol-5-yl)phenyl)-N2-benzyl-N4-(4-chloro-3-methoxyphenyl)-N2-isobutylpyridine-2,4-diamine]: the IC50 was found to be 2 nM.

Turning to `CC(C)CN(Cc1ccccc1)c1cc(Nc2cccc(OC(F)(F)C(F)F)c2)cc(-c2ccccc2-c2nnn[nH]2)n1` [Example 189, 6-(2-(1H-tetrazol-5-yl)phenyl)-N2-benzyl-N2-isobutyl-N4-(3-(1,1,2,2-tetrafluoroethoxy)phenyl)pyridine-2,4-diamine], the half-inhibitory concentration (IC50) is 9.3 nM.

For `COc1cc(Nc2cc(-c3ccccc3-c3nnn[nH]3)nc(N(Cc3ccccc3)CC(C)C)c2)ccc1F` [Example 190, 6-(2-(1H-tetrazol-5-yl)phenyl)-N2-benzyl-N4-(4-fluoro-3-methoxyphenyl)-N2-isobutylpyridine-2,4-diamine], the IC50 was 8.5 nM.

As to `CC(C)CN(Cc1ccccc1)c1cc(Nc2cccc(C(F)F)c2)cc(-c2ccccc2-c2nnn[nH]2)n1` [Example 191, 6-(2-(1H-tetrazol-5-yl)phenyl)-N2-benzyl-N4-(3-(difluoromethyl)phenyl)-N2-isobutylpyridine-2,4-diamine], the IC50 turned out to be 26.4 nM.

Consider `CC(C)CN(Cc1ccccc1)c1cc(Nc2cccc(C#N)c2)cc(-c2ccccc2-c2nnn[nH]2)n1` [Example 192, 3-((2-(2-(1H-tetrazol-5-yl)phenyl)-6-(benzyl(isobutyl)amino)pyridin-4-yl)amino)benzonitrile], for which the 50% inhibitory concentration (IC50) worked out at 19.8 nM.

For the compound `CC(C)CN(Cc1ccccc1)c1cc(Nc2cccc(OC(F)(F)F)c2)cc(-c2ccccc2-c2nnn[nH]2)n1` [Example 193, 6-(2-(1H-tetrazol-5-yl)phenyl)-N2-benzyl-N2-isobutyl-N4-(3-(trifluoromethoxy)phenyl)pyridine-2,4-diamine], the 50% inhibitory concentration (IC50) was 14.1 nM.

With `CC(C)CN(Cc1ccccc1)c1cc(Nc2ccccc2C#N)cc(-c2ccccc2-c2nnn[nH]2)n1` [Example 194, 2-((2-(2-(1H-tetrazol-5-yl)phenyl)-6-(benzyl(isobutyl)amino)pyridin-4-yl)amino)benzonitrile], the half-maximal inhibitory concentration (IC50) is 230 nM.

`CC(C)CN(Cc1ccccc1)c1cc(Nc2cccc(C(F)F)n2)cc(-c2ccccc2-c2nnn[nH]2)n1` [Example 195, 6-(2-(1H-tetrazol-5-yl)phenyl)-N2-benzyl-N4-(6-(difluoromethyl)pyridin-2-yl)-N2-isobutylpyridine-2,4-diamine]: the concentration for half-maximal inhibition (IC50) is 19.8 nM.

Consider `COc1cccc(Nc2cc(-c3ccccc3-c3nnn[nH]3)nc(N(Cc3ccccc3)CC(C)C)c2)c1` [Example 196, 6-(2-(1H-tetrazol-5-yl)phenyl)-N2-benzyl-N2-isobutyl-N4-(3-methoxyphenyl)pyridine-2,4-diamine], for which the concentration for half-maximal inhibition (IC50) stood at 7 nM.

As to `COc1cc(F)cc(Nc2cc(-c3ccccc3-c3nnn[nH]3)nc(N(Cc3ccccc3)CC(C)C)c2)c1` [Example 197, 6-(2-(1H-tetrazol-5-yl)phenyl)-N2-benzyl-N4-(3-fluoro-5-methoxyphenyl)-N2-isobutylpyridine-2,4-diamine], the half-maximal inhibitory concentration (IC50) is 5.8 nM.

With `COc1ccc(Nc2cc(-c3ccccc3-c3nnn[nH]3)nc(N(Cc3ccccc3)CC(C)C)c2)cc1C(N)=O` [Example 198, 5-((2-(2-(1H-tetrazol-5-yl)phenyl)-6-(benzyl(isobutyl)amino)pyridin-4-yl)amino)-2-methoxybenzamide], the IC50 was 2960 nM.

Turning to `CCCN(Cc1ccccc1)c1cc(NC(=O)Cc2cncc(Br)c2)cc(-c2ccccc2-c2nn[nH]n2)n1` [Example 199, N-(2-(2-(2H-tetrazol-5-yl)phenyl)-6-(benzyl(propyl)amino)-yl)-2-(5-bromopyridin-3-yl)acetamide], the IC50 is 239 nM.

As to `CCCN(Cc1ccccc1)c1cc(NC(=O)Cc2cccc3ccccc23)cc(-c2ccccc2-c2nn[nH]n2)n1` [Example 200, N-(2-(2-(2H-tetrazol-5-yl)phenyl)-6-(benzyl(propyl)amino)pyridin-4-yl)-2-(naphthalen-1-yl)acetamide], the half-maximal inhibitory concentration (IC50) is 82.4 nM.
